Here are results for four compounds from patent US6599906B1, “Method of local anesthesia and analgesia” (priority 2000, dated 2003).

Where “and” joins values, the source holds several entries; their conditions need not be identical. Equal entries are not always repeated. Where two headings read alike, the source gives them in different places.

The subject of data set [1] is pain induced by tooth pulp stimulation. Type of data set: in vivo, New Zealand white rabbits.
The subject of a further data set is tooth pain. Particulars: background statement, patients; cited from earlier work.
Data set [2] relates to rabbits. Particulars: rabbit, in vivo.
Data set [3] concerns pain induced by tooth pulp stimulation. Further details: species or system rabbits. The following applies: rabbit, in vivo; read-out: EC50 value and 95% confidence interval for dental local analgesia.
The subject of data set [4] is rabbits. The following applies: rabbit, in vivo. The source holds these as a separate data set.
The test system of data set [5] is rabbits. Particulars: rabbit, in vivo. This is another data set of the same source.

With `CCN(CC)CC(=O)Nc1c(C)cccc1C` [lidocaine], in data set [1] (rabbit, in vivo), the “Percentage change in pain-inducing threshold voltage” value (shortened to “Percentage change”) is 30 ± 29% and 28 ± 36% and 26 ± 30% and 20 ± 32% and 24 ± 32% and 17 ± 21%; the “effect on the threshold voltage compared to the solvent control, in words” value is given as “markedly increased the threshold voltage”; the “synergistic activity with TTX, in words” value is recorded as “did not show a similar synergistic activity”.

With `CCN(CC)CCOC(=O)c1ccc(N)cc1` [procaine], the “period of partial pain relief as topical anesthetic for tooth pain” value in the data set with tooth pain is listed as “about 1 hour”. Also, the “Percentage change” value in data set [1] (2% anesthetic, 20 μL to tooth pulp cavity, 10 min) is reported as −2 ± 20%; in data set [1] (2% anesthetic, 20 μL to tooth pulp cavity, 20 min), −2 ± 20%; in data set [1] (2% anesthetic, 20 μL to tooth pulp cavity, 30 min), −4 ± 23%; in data set [1] (2% anesthetic, 20 μL to tooth pulp cavity, 40 min) it was −3 ± 22%; in data set [1] (2% anesthetic, 20 μL to tooth pulp cavity, 50 min), −2 ± 28%; in data set [1] (2% anesthetic, 20 μL to tooth pulp cavity, 60 min), −1 ± 26%. Besides, the “effect on the threshold voltage compared to the solvent control, in words” value in data set [1] (rabbit, in vivo) is “no clear effect on the threshold voltage”.

For `CCCCNc1ccc(C(=O)OCCN(C)C)cc1` [tetracaine], the “period of partial pain relief as topical anesthetic for tooth pain” value in the data set on tooth pain is listed as “about 1 hour”. For the same compound, the “Percentage change” value in data set [1] (1% tetracaine (equal to 33 mM), 20 μL to tooth pulp cavity, 10 min) was determined as 27 ± 30%; in data set [1] (1% tetracaine (equal to 33 mM), 20 μL to tooth pulp cavity, 20 min), 32 ± 38%; in data set [1] (1% tetracaine (equal to 33 mM), 20 μL to tooth pulp cavity, 30 min) it was 29 ± 31%; in data set [1] (1% tetracaine (equal to 33 mM), 20 μL to tooth pulp cavity, 40 min) it was 32 ± 22%; in data set [1] (1% tetracaine (equal to 33 mM), 20 μL to tooth pulp cavity, 50 min) it was 22 ± 15%; in data set [1] (1% tetracaine (equal to 33 mM), 20 μL to tooth pulp cavity, 60 min), 16 ± 18%. The “Percentage change” value in data set [1] (Table 7, 1% tetracaine, 20 μL to tooth pulp cavity, 15 min) was found to be 27 ± 30%; in data set [1] (Table 7, 1% tetracaine, 20 μL to tooth pulp cavity, 45 min), 32 ± 22%. In data set [1] (rabbit, in vivo), the “effect on the threshold voltage compared to the solvent control, in words” value is “markedly increased the threshold voltage”.

For the compound `NC1=N[C@H](O)[C@H]2[C@H]3O[C@]4(O)O[C@@H]([C@@H](O)[C@@]2(N1)[C@@H]4O)[C@]3(O)CO` [tetrodotoxin, Tetrodotoxin], the “rabbits manifesting increased excretion in the respiratory tract” value in the data set with rabbits [2] is listed as 4 out of 10. Besides, the EC50 in data set [3] came to 1.04 ± 0.03 mM. Also, in the data set on rabbits [4], the ALP is 69 ± 17 U/L and 71 ± 23 U/L; the ALT was 67 ± 43 U/L and 53 ± 19 U/L; the BUN is 8.4 ± 0.9 mmol/L and 8.5 ± 1.7 mmol/L; the CO2 in serum is 26.4 ± 1.2 mmol/L and 30.0 ± 2.5 mmol/L. For the same compound, in the data set with rabbits [4], the “Ca^2+ in serum” value is 3.26 ± 0.18 mmol/L and 3.34 ± 0.12 mmol/L; the Cre is 109 ± 12 µmol/L and 99 ± 6 µmol/L; the GTP is 5.2 ± 1.3 U/L and 5.7 ± 2.1 U/L; the HCT was 38.5 ± 3.4% and 33.6 ± 1.9%. Moreover, in the data set on rabbits [4], the HGB is 12.4 ± 1.0 g/dL and 11.3 ± 0.6 g/dL; the IP is 1.66 ± 0.23 mmol/L and 1.46 ± 0.40 mmol/L; the “K^+ in serum” value was 3.8 ± 0.3 mmol/L and 3.8 ± 0.1 mmol/L; the LAP is 109 ± 11 µmol/L and 108 ± 10 µmol/L. Also, in the data set on rabbits [4], the MCH was 22.2 ± 1.4 pg and 22.5 ± 1.1 pg; the MCHC is 32.4 ± 1.3 g/dL and 33.6 ± 0.6 g/dL; the MCV is 68.5 ± 2.8 fL and 66.9 ± 2.1 fL; the “Na^+ in serum” value was 141.1 ± 1.1 mmol/L and 141.7 ± 1.8 mmol/L. In addition, in the data set on rabbits [4], the PLT was 141 ± 120 ×10^3/μl and 159 ± 37 ×10^3/μl; the TBA is 13.5 ± 12.0 U/L and 14.5 ± 9.2 U/L; the TP is 60 ± 6 g/L and 57 ± 6 g/L; the WBC is 4.2 ± 1.2 ×10^3/μl and 6.6 ± 2.4 ×10^3/μl. Further, the “effect on the blood cellular or biochemical parameters, in words” value with rabbits [4] is “did not have any significant effect”. In the data set with rabbits [5], the “RR (respiratory rate)” value is 99 ± 11 and 102 ± 2 and 102 ± 6 and 91 ± 10 and 94 ± 12 and 99 ± 5; the “effect on ECG, in words” value is reported as “did not suggest any significant effect”; the “effect on heart rate or respiratory rate, in words” value was “did not significantly modify the heart rate or respiratory rate”. In addition, in data set [1] (rabbit, in vivo), the “onset of the effect of TTX increasing the threshold voltage” value is 5 min and the “time at which peak of effect on threshold voltage was reached” value worked out at 1 h.
